The values that follow come from patent US9669014B2, “Small molecule inhibitors of superoxide dismutase expression” (Northwestern University, priority 2014, dated 2017).

Where two headings read alike, the source gives them in different places.

The assay relates to G93A-SOD1 expression. The assay can be described thus: SOD1 protein expression in cultured fibroblasts from G93A-SOD1 mice (ELISA). It is filed as cell-based, mouse. To be noted: for activity at 10 µM: Mus musculus, Fibroblast, 48 h, 10 μM compound. A general note: In an ELISA, binding on a coated surface is turned into a signal by an enzyme label.
The mark [1] stands for this setting: Table 2, relative to control, read-out: Relative SOD1 expression 10 μM compound.
The mark [2] stands for this setting: Table 5, read-out: Relative SOD1 Expression in Presence of Compound (10 μM).

Protocol: Fibroblasts were treated with the title compounds at the indicated concentration for 48 hr. Cells were washed, lysed, and SOD1 levels measured by ELISA. SOD1 levels are normalized to the total protein in the lysate.
Thus, we used cultured fibroblasts from the G93A-SOD1 transgenic mouse to screen GSK3β protein kinase inhibitors (FIG. 1) for their effects on SOD1 expression. The transgene construct contains the human SOD1 promoter so that cellular signaling processes that affect transcription of the gene will be fully functional. We chose a structurally diverse group of compounds including some natural products.

Take `O=C1Nc2cc(Br)ccc2/C1=C1/Nc2ccccc2/C1=N\O` [GSK3B-IX, reference compound]: for the setting “G93A-SOD1 mouse fibroblasts”, the “Effect on SOD1 expression (in words)” value was “increased SOD1 expression”.

Turning to `Brc1cccc(CSc2nnc(-c3ccncc3)o2)c1` [NUCC-318], the activity at 10 µM under setting [1] came out at 91% and the activity at 10 µM under setting [2] amounted to 90.3%.

On to `Fc1cccc(CSc2nnc(-c3ccncc3)o2)c1` [NUCC-319], for which the “Effect on SOD1 expression (in words)” value (G93A-SOD1 mouse fibroblasts) is “significant increase in SOD1 expression”. For the same compound, the activity at 10 µM by setting is: under setting [1], 143%; under setting [2], 144%.

Take `Brc1ccc(CSc2nnc(-c3ccncc3)o2)cc1` [NUCC-320]: the “Effect on SOD1 expression (in words)” value (G93A-SOD1 mouse fibroblasts) is on record as “no effect on SOD1 expression”. The activity at 10 µM was determined as 103% under setting [1] and 103% under setting [2].

For the compound `Ic1ccc(CSc2nnc(-c3ccncc3)o2)cc1` [NUCC-321], the activity at 10 µM worked out at 69% under setting [1] and 70.2% under setting [2].

For `Brc1ccc(CSc2nnc(-c3cccnc3)o2)cc1` [NUCC-322], for the setting “10 μM”, the “SOD1 expression, % of control” value is listed as 68.6 % of control. For the same compound, under setting [2], the activity at 10 µM came out at 68.6%.

Consider `Cn1c(SCc2ccc(Br)cc2)nnc1-c1ccncc1` [NUCC-0000323], for which the activity at 10 µM under setting [2] worked out at 103%.

On to `Fc1ccc(CSc2nnc(-c3ccncc3)o2)cc1` [NUCC-324], for which the activity at 10 µM is, setting by setting: under setting [1], 86%; under setting [2], 86.3%.

For `CSc1nnc(-c2ccncc2-c2ccc(F)cc2)o1` [NUCC-0000404], under setting [2], the activity at 10 µM is 94.9%.

As to `Cc1cc(-c2nnc(SCc3ccc(F)cc3)o2)ccn1` [NUCC-0000405], the activity at 10 µM under setting [2] was 95%.

In the case of `O=c1c(C2=NC3C=CC=CC3N2)coc2ccc(Cl)cc12` (centres unmarked) [NUCC-0000406], under setting [2], the activity at 10 µM was 89.9%.

As for `N#Cc1ccc(-c2ccc(CSc3nnc(-c4ccc5c(c4)OCO5)o3)cc2)cc1` [NUCC-0000418], the activity at 10 µM under setting [2] stood at 114%.

In the case of `O=[N+]([O-])c1ccccc1CSc1nnc(-c2ccncc2)o1` [NUCC-0000430], the activity at 10 µM under setting [2] amounted to 101%.

Consider `O=[N+]([O-])c1ccc(CSc2nnc(-c3ccncc3)o2)cc1` [NUCC-431], for which the activity at 10 µM under setting [1] amounted to 102% and the activity at 10 µM under setting [2] came out at 102%.

Regarding `O=[N+]([O-])c1cccc(CSc2nnc(-c3ccncc3)o2)c1` [NUCC-432], the “Effect on SOD1 expression (in words)” value (G93A-SOD1 mouse fibroblasts) was “tended to cause an increase in SOD1 expression”. The activity at 10 µM was 117% under setting [1] and 117% under setting [2].

Take `COc1cccc(CSc2nnc(-c3ccncc3)o2)c1` [NUCC-433]: the “Effect on SOD1 expression (in words)” value (G93A-SOD1 mouse fibroblasts) is given as “dose dependent reduction of SOD1 expression in vitro”. Moreover, the “Shape of dose-response curve for SOD1 expression” value (G93A-SOD1 mouse fibroblasts) is “flattened rather than upward curvature at higher concentration”. For the same compound, the activity at 10 µM amounted to 50% under setting [1] and 49.9% under setting [2].

For `FC(F)(F)c1ccc(CSc2nnc(-c3ccncc3)o2)cc1` [NUCC-435], for the setting “G93A-SOD1 mouse fibroblasts”, the “Effect on SOD1 expression (in words)” value is on record as “significant increase in SOD1 expression”. Besides, the activity at 10 µM was found to be 157% under setting [1] and 158% under setting [2].

As for `Cc1ccc(CSc2nnc(-c3ccncc3)o2)cc1` [NUCC-436], the activity at 10 µM under setting [1] was 126% and the activity at 10 µM under setting [2] was 126%.

Turning to `c1cc(CSc2nnc(-c3ccncc3)o2)ccn1` [NUCC-437], where the note is “G93A-SOD1 mouse fibroblasts”, the “Effect on SOD1 expression (in words)” value was “not significantly different from control”. The activity at 10 µM under setting [2] is 90.3%.

Consider `c1cncc(CSc2nnc(-c3ccncc3)o2)c1` [NUCC-438], for which, under “G93A-SOD1 mouse fibroblasts”, the “Effect on SOD1 expression (in words)” value is on record as “not significantly different from control”. Also, the activity at 10 µM under setting [2] was 112%.

In the case of `Clc1cccc(CSc2nnc(-c3ccncc3)o2)c1` [NUCC-439], the activity at 10 µM turned out to be 96% under setting [1] and 95.9% under setting [2].

For `Clc1ccc(CSc2nnc(-c3ccncc3)o2)cc1` [NUCC-440], where the note is “G93A-SOD1 mouse fibroblasts”, the “Effect on SOD1 expression (in words)” value is “tended to cause an increase in SOD1 expression”. The activity at 10 µM under setting [1] amounted to 123% and the activity at 10 µM under setting [2] was determined as 123%.
